Test results as given in PubChem BioAssay AID1963965 (Molecular Pharmacology Branch, DTP, NCI, 2024).

Tested on: 996289-038-R-J1-PDC spheroid viability
Assay: Anticancer human tumor 996289-038-R-J1-PDC patient-derived colon adenocarcinoma cell line growth inhibition [PI3K]
Details: spheroids with HUVEC and MSC; for IC50: curve of first compound; for viability, T/C: stronger effect = lower value
Summary of the method: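 High-throughput combination screen: PI3K inhibitors crossed with targeted small molecules on complex spheroids of tumor cells, HUVEC and MSCs at 37 degrees C, 5% CO2. Top concentration was at or near clinical Cmax (otherwise 10 microM), with half-log decrements.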
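Also: spheroids exposed to compounds for seven days before viability read.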
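For viability, T/C in this document: luminescence used as a proxy for viable cell amount; percent viability relative to DMSO vehicle control as 100%.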

## CNC(=O)c1ccc(N2C(=S)N(c3ccc(C#N)c(C(F)(F)F)c3)C(=O)C2(C)C)cc1F + Cc1nc(NC(=O)N2CCCC2C(N)=O)sc1-c1ccnc(C(C)(C)C(F)(F)F)c1
Second compound 0.0316 µM
  IC50: > 10000 nM
Second compound 0.1 µM
  IC50: > 10000 nM
Second compound 0.316 µM
  IC50: > 10000 nM
Second compound 1 µM
  IC50: > 10000 nM
Second compound 3.16 µM
  IC50: > 10000 nM
Second compound 10 µM
  IC50: < 31.6 nM
Second compound 0.0316 µM, first compound 0.0316 µM
  viability, T/C: 92%
Second compound 0.0316 µM, first compound 0.1 µM
  viability, T/C: 95.8%
Second compound 0.0316 µM, first compound 0.316 µM
  viability, T/C: 92.2%
Second compound 0.0316 µM, first compound 1 µM
  viability, T/C: 92.3%
Second compound 0.0316 µM, first compound 3.16 µM
  viability, T/C: 93.8%
Second compound 0.0316 µM, first compound 10 µM
  viability, T/C: 90.4%
Second compound 0.1 µM, first compound 0.0316 µM
  viability, T/C: 92.9%
Second compound 0.1 µM, first compound 0.1 µM
  viability, T/C: 82.7%
Second compound 0.1 µM, first compound 0.316 µM
  viability, T/C: 97.2%
Second compound 0.1 µM, first compound 1 µM
  viability, T/C: 83.3%
Second compound 0.1 µM, first compound 3.16 µM
  viability, T/C: 95.2%
Second compound 0.1 µM, first compound 10 µM
  viability, T/C: 90.3%
Second compound 0.316 µM, first compound 0.0316 µM
  viability, T/C: 90.9%
Second compound 0.316 µM, first compound 0.1 µM
  viability, T/C: 81%
Second compound 0.316 µM, first compound 0.316 µM
  viability, T/C: 88.4%
Second compound 0.316 µM, first compound 1 µM
  viability, T/C: 84.8%
Second compound 0.316 µM, first compound 3.16 µM
  viability, T/C: 73.9%
Second compound 0.316 µM, first compound 10 µM
  viability, T/C: 96.5%
Second compound 1 µM, first compound 0.0316 µM
  viability, T/C: 75.6%
Second compound 1 µM, first compound 0.1 µM
  viability, T/C: 76.9%
Second compound 1 µM, first compound 0.316 µM
  viability, T/C: 69.7%
Second compound 1 µM, first compound 1 µM
  viability, T/C: 79.9%
Second compound 1 µM, first compound 3.16 µM
  viability, T/C: 80.7%
Second compound 1 µM, first compound 10 µM
  viability, T/C: 70.8%
Second compound 3.16 µM, first compound 0.0316 µM
  viability, T/C: 65.5%
Second compound 3.16 µM, first compound 0.1 µM
  viability, T/C: 64.7%
Second compound 3.16 µM, first compound 0.316 µM
  viability, T/C: 58.9%
Second compound 3.16 µM, first compound 1 µM
  viability, T/C: 52.4%
Second compound 3.16 µM, first compound 3.16 µM
  viability, T/C: 61.5%
Second compound 3.16 µM, first compound 10 µM
  viability, T/C: 51.3%
Second compound 10 µM, first compound 0.0316 µM
  viability, T/C: 39.9%
Second compound 10 µM, first compound 0.1 µM
  viability, T/C: 46.9%
Second compound 10 µM, first compound 0.316 µM
  viability, T/C: 49.6%
Second compound 10 µM, first compound 1 µM
  viability, T/C: 38.9%
Second compound 10 µM, first compound 3.16 µM
  viability, T/C: 48.3%
Second compound 10 µM, first compound 10 µM
  viability, T/C: 36.8%

## Cn1cnc2c(F)c(Nc3ccc(Br)cc3Cl)c(C(=O)NOCCO)cc21 + Cc1nc(NC(=O)N2CCCC2C(N)=O)sc1-c1ccnc(C(C)(C)C(F)(F)F)c1
Second compound 0.0316 µM
  IC50: 148 nM
Second compound 0.1 µM
  IC50: 114 nM
Second compound 0.316 µM
  IC50: 59.4 nM
Second compound 1 µM
  IC50: 24.8 nM
Second compound 3.16 µM
  IC50: 13.5 nM
Second compound 10 µM
  IC50: < 9.49 nM
Second compound 0.0316 µM, first compound 0.00949 µM
  viability, T/C: 73%
Second compound 0.0316 µM, first compound 0.03 µM
  viability, T/C: 64.4%
Second compound 0.0316 µM, first compound 0.0949 µM
  viability, T/C: 54.4%
Second compound 0.0316 µM, first compound 0.3 µM
  viability, T/C: 42.5%
Second compound 0.0316 µM, first compound 0.949 µM
  viability, T/C: 33.8%
Second compound 0.0316 µM, first compound 3 µM
  viability, T/C: 23.6%
Second compound 0.1 µM, first compound 0.00949 µM
  viability, T/C: 76.7%
Second compound 0.1 µM, first compound 0.03 µM
  viability, T/C: 70.4%
Second compound 0.1 µM, first compound 0.0949 µM
  viability, T/C: 48.6%
Second compound 0.1 µM, first compound 0.3 µM
  viability, T/C: 38.6%
Second compound 0.1 µM, first compound 0.949 µM
  viability, T/C: 30.4%
Second compound 0.1 µM, first compound 3 µM
  viability, T/C: 20.5%
Second compound 0.316 µM, first compound 0.00949 µM
  viability, T/C: 76.2%
Second compound 0.316 µM, first compound 0.03 µM
  viability, T/C: 60.6%
Second compound 0.316 µM, first compound 0.0949 µM
  viability, T/C: 41.9%
Second compound 0.316 µM, first compound 0.3 µM
  viability, T/C: 32%
Second compound 0.316 µM, first compound 0.949 µM
  viability, T/C: 26.5%
Second compound 0.316 µM, first compound 3 µM
  viability, T/C: 20.1%
Second compound 1 µM, first compound 0.00949 µM
  viability, T/C: 58.2%
Second compound 1 µM, first compound 0.03 µM
  viability, T/C: 50.5%
Second compound 1 µM, first compound 0.0949 µM
  viability, T/C: 35.3%
Second compound 1 µM, first compound 0.3 µM
  viability, T/C: 29.4%
Second compound 1 µM, first compound 0.949 µM
  viability, T/C: 22.1%
Second compound 1 µM, first compound 3 µM
  viability, T/C: 14.8%
Second compound 3.16 µM, first compound 0.00949 µM
  viability, T/C: 55.3%
Second compound 3.16 µM, first compound 0.03 µM
  viability, T/C: 39.1%
Second compound 3.16 µM, first compound 0.0949 µM
  viability, T/C: 30.1%
Second compound 3.16 µM, first compound 0.3 µM
  viability, T/C: 22.2%
Second compound 3.16 µM, first compound 0.949 µM
  viability, T/C: 16.8%
Second compound 3.16 µM, first compound 3 µM
  viability, T/C: 8.81%
Second compound 10 µM, first compound 0.00949 µM
  viability, T/C: 31.3%
Second compound 10 µM, first compound 0.03 µM
  viability, T/C: 24.8%
Second compound 10 µM, first compound 0.0949 µM
  viability, T/C: 19.1%
Second compound 10 µM, first compound 0.3 µM
  viability, T/C: 14%
Second compound 10 µM, first compound 0.949 µM
  viability, T/C: 9.2%
Second compound 10 µM, first compound 3 µM
  viability, T/C: 5.22%
